Several values for one entry are separate records, joined by “and”; a condition that tells them apart may be missing. Equal values may be shown once. Numbers after ± are expanded uncertainties.
Experiments:
[1] = DTA
[2] = Molar enthalpy of transition or fusion; details: DSC
[3] = molar heat capacity at constant pressure; details: 101.33 kPa

## OC1CCCCCCC1 [cyclooctanol]
[1]; Crystal 1
  Triple point temperature: 296.78 ± 0.42 K
[1]; Crystal 2
  Triple point temperature: 263.56 ± 0.39 K
[2]; Crystal 1
  Molar enthalpy of transition or fusion: 0.457 ± 0.0765 kcal/mol
[2]; Crystal 2
  Molar enthalpy of transition or fusion: 0.507 ± 0.0765 kcal/mol
[3]; 261.1 K, Crystal 1, Large sample (1 g) DSC
  molar heat capacity at constant pressure: 235.9 ± 4.1 J/K/mol
[3]; 261.23 K, Crystal 1, Large sample (1 g) DSC
  molar heat capacity at constant pressure: 236.1 ± 4.1 J/K/mol
[3]; 264 K, Crystal 1, Large sample (1 g) DSC
  molar heat capacity at constant pressure: 238.7 ± 4.1 J/K/mol and 238.8 ± 4.1 J/K/mol
[3]; 267 K, Crystal 1, Large sample (1 g) DSC
  molar heat capacity at constant pressure: 241.8 ± 4.2 J/K/mol and 241.9 ± 4.2 J/K/mol
[3]; 270 K, Crystal 1, Large sample (1 g) DSC
  molar heat capacity at constant pressure: 245.1 ± 4.2 J/K/mol and 245.3 ± 4.3 J/K/mol
[3]; 273 K, Crystal 1, Large sample (1 g) DSC
  molar heat capacity at constant pressure: 248.9 ± 4.3 J/K/mol and 249 ± 4.3 J/K/mol
[3]; 276 K, Crystal 1, Large sample (1 g) DSC
  molar heat capacity at constant pressure: 252.7 ± 4.4 J/K/mol and 252.8 ± 4.4 J/K/mol
[3]; 279 K, Crystal 1, Large sample (1 g) DSC
  molar heat capacity at constant pressure: 256.9 ± 4.5 J/K/mol
[3]; 282 K, Crystal 1, Large sample (1 g) DSC
  molar heat capacity at constant pressure: 261.4 ± 4.5 J/K/mol and 261.5 ± 4.5 J/K/mol
[3]; 283.88 K, Crystal 1, Large sample (1 g) DSC
  molar heat capacity at constant pressure: 264.3 ± 4.6 J/K/mol
[3]; 284.25 K, Crystal 1, Large sample (1 g) DSC
  molar heat capacity at constant pressure: 265.2 ± 4.6 J/K/mol
[3]; 301.94 K, Liquid, Large sample (1 g) DSC
  molar heat capacity at constant pressure: 295.6 ± 5.1 J/K/mol
[3]; 302.06 K, Liquid, Large sample (1 g) DSC
  molar heat capacity at constant pressure: 295.8 ± 5.1 J/K/mol
[3]; 305 K, Liquid, Large sample (1 g) DSC
  molar heat capacity at constant pressure: 299.1 ± 5.2 J/K/mol
[3]; 310 K, Liquid, Large sample (1 g) DSC
  molar heat capacity at constant pressure: 304.6 ± 5.3 J/K/mol
[3]; 315 K, Liquid, Large sample (1 g) DSC
  molar heat capacity at constant pressure: 310.1 ± 5.4 J/K/mol and 310 ± 5.4 J/K/mol
[3]; 318.15 K, Liquid, Small sample (50 mg) DSC
  molar heat capacity at constant pressure: 313.1 ± 5.4 J/K/mol
[3]; 320 K, Liquid, Large sample (1 g) DSC
  molar heat capacity at constant pressure: 315.1 ± 5.5 J/K/mol
[3]; 323.14 K, Liquid, Small sample (50 mg) DSC
  molar heat capacity at constant pressure: 318.2 ± 5.5 J/K/mol
[3]; 325 K, Liquid, Large sample (1 g) DSC
  molar heat capacity at constant pressure: 320.2 ± 5.5 J/K/mol
[3]; 328.14 K, Liquid, Small sample (50 mg) DSC
  molar heat capacity at constant pressure: 323.1 ± 5.6 J/K/mol
[3]; 330 K, Liquid, Large sample (1 g) DSC
  molar heat capacity at constant pressure: 325 ± 5.6 J/K/mol and 324.9 ± 5.6 J/K/mol
[3]; 333.14 K, Liquid, Small sample (50 mg) DSC
  molar heat capacity at constant pressure: 327.7 ± 5.7 J/K/mol
[3]; 335 K, Liquid, Large sample (1 g) DSC
  molar heat capacity at constant pressure: 329.4 ± 5.7 J/K/mol and 329.3 ± 5.7 J/K/mol
[3]; 338.14 K, Liquid, Small sample (50 mg) DSC
  molar heat capacity at constant pressure: 332.6 ± 5.8 J/K/mol
[3]; 340 K, Liquid, Large sample (1 g) DSC
  molar heat capacity at constant pressure: 333.7 ± 5.8 J/K/mol
[3]; 343.14 K, Liquid, Small sample (50 mg) DSC
  molar heat capacity at constant pressure: 337 ± 5.8 J/K/mol
[3]; 345 K, Liquid, Large sample (1 g) DSC
  molar heat capacity at constant pressure: 338.4 ± 5.9 J/K/mol and 338.3 ± 5.9 J/K/mol
[3]; 348.13 K, Liquid, Small sample (50 mg) DSC
  molar heat capacity at constant pressure: 341.1 ± 5.9 J/K/mol
[3]; 350 K, Liquid, Large sample (1 g) DSC
  molar heat capacity at constant pressure: 343 ± 5.9 J/K/mol and 342.9 ± 5.9 J/K/mol
[3]; 353.13 K, Liquid, Small sample (50 mg) DSC
  molar heat capacity at constant pressure: 345.4 ± 12 J/K/mol
[3]; 355 K, Liquid, Large sample (1 g) DSC
  molar heat capacity at constant pressure: 347.1 ± 6 J/K/mol and 347 ± 6 J/K/mol
[3]; 357.87 K, Liquid, Large sample (1 g) DSC
  molar heat capacity at constant pressure: 349.1 ± 6 J/K/mol
[3]; 357.94 K, Liquid, Large sample (1 g) DSC
  molar heat capacity at constant pressure: 349.1 ± 6 J/K/mol
[3]; 358.13 K, Liquid, Small sample (50 mg) DSC
  molar heat capacity at constant pressure: 349.5 ± 12 J/K/mol
[3]; 363.12 K, Liquid, Small sample (50 mg) DSC
  molar heat capacity at constant pressure: 353.5 ± 12 J/K/mol
[3]; 366.11 K, Liquid, Small sample (50 mg) DSC
  molar heat capacity at constant pressure: 355.8 ± 12 J/K/mol
[3]; 369.12 K, Liquid, Small sample (50 mg) DSC
  molar heat capacity at constant pressure: 357.9 ± 12 J/K/mol
[3]; 372.13 K, Liquid, Small sample (50 mg) DSC
  molar heat capacity at constant pressure: 359.6 ± 12 J/K/mol
[3]; 375.14 K, Liquid, Small sample (50 mg) DSC
  molar heat capacity at constant pressure: 361.4 ± 12 J/K/mol
[3]; 378.12 K, Liquid, Small sample (50 mg) DSC
  molar heat capacity at constant pressure: 363 ± 12 J/K/mol
[3]; 381.14 K, Liquid, Small sample (50 mg) DSC
  molar heat capacity at constant pressure: 364.4 ± 12 J/K/mol
[3]; 384.12 K, Liquid, Small sample (50 mg) DSC
  molar heat capacity at constant pressure: 365.8 ± 12 J/K/mol
[3]; 387.13 K, Liquid, Small sample (50 mg) DSC
  molar heat capacity at constant pressure: 366.9 ± 12 J/K/mol
[3]; 390.11 K, Liquid, Small sample (50 mg) DSC
  molar heat capacity at constant pressure: 367.8 ± 12 J/K/mol
[3]; 393.12 K, Liquid, Small sample (50 mg) DSC
  molar heat capacity at constant pressure: 368.7 ± 12 J/K/mol
[3]; 396.14 K, Liquid, Small sample (50 mg) DSC
  molar heat capacity at constant pressure: 369.4 ± 12 J/K/mol
[3]; 399.12 K, Liquid, Small sample (50 mg) DSC
  molar heat capacity at constant pressure: 370 ± 12 J/K/mol
[3]; 402.13 K, Liquid, Small sample (50 mg) DSC
  molar heat capacity at constant pressure: 371 ± 12 J/K/mol
[3]; 405.12 K, Liquid, Small sample (50 mg) DSC
  molar heat capacity at constant pressure: 371.6 ± 12 J/K/mol
[3]; 408.13 K, Liquid, Small sample (50 mg) DSC
  molar heat capacity at constant pressure: 371.9 ± 12 J/K/mol
[3]; 411.11 K, Liquid, Small sample (50 mg) DSC
  molar heat capacity at constant pressure: 372.3 ± 12 J/K/mol
[3]; 414.12 K, Liquid, Small sample (50 mg) DSC
  molar heat capacity at constant pressure: 372.6 ± 12 J/K/mol
[3]; 417.13 K, Liquid, Small sample (50 mg) DSC
  molar heat capacity at constant pressure: 372.9 ± 12 J/K/mol
[3]; 420.12 K, Liquid, Small sample (50 mg) DSC
  molar heat capacity at constant pressure: 373.1 ± 12 J/K/mol
[3]; 423.13 K, Liquid, Small sample (50 mg) DSC
  molar heat capacity at constant pressure: 373.2 ± 12 J/K/mol
[3]; 426.11 K, Liquid, Small sample (50 mg) DSC
  molar heat capacity at constant pressure: 373.2 ± 12 J/K/mol
[3]; 429.19 K, Liquid, Small sample (50 mg) DSC
  molar heat capacity at constant pressure: 373.2 ± 12 J/K/mol
[3]; 432.31 K, Liquid, Small sample (50 mg) DSC
  molar heat capacity at constant pressure: 373.2 ± 12 J/K/mol
[3]; 435.12 K, Liquid, Small sample (50 mg) DSC
  molar heat capacity at constant pressure: 373.2 ± 12 J/K/mol
[3]; 438.13 K, Liquid, Small sample (50 mg) DSC
  molar heat capacity at constant pressure: 373 ± 12 J/K/mol
[3]; 441.14 K, Liquid, Small sample (50 mg) DSC
  molar heat capacity at constant pressure: 372.8 ± 12 J/K/mol
[3]; 444.13 K, Liquid, Small sample (50 mg) DSC
  molar heat capacity at constant pressure: 372.8 ± 12 J/K/mol
[3]; 447.14 K, Liquid, Small sample (50 mg) DSC
  molar heat capacity at constant pressure: 372.7 ± 12 J/K/mol
[3]; 450.12 K, Liquid, Small sample (50 mg) DSC
  molar heat capacity at constant pressure: 372.5 ± 12 J/K/mol
[3]; 453.13 K, Liquid, Small sample (50 mg) DSC
  molar heat capacity at constant pressure: 372.6 ± 12 J/K/mol
[3]; 456.14 K, Liquid, Small sample (50 mg) DSC
  molar heat capacity at constant pressure: 372.6 ± 12 J/K/mol
[3]; 459.13 K, Liquid, Small sample (50 mg) DSC
  molar heat capacity at constant pressure: 372.6 ± 12 J/K/mol
[3]; 462.14 K, Liquid, Small sample (50 mg) DSC
  molar heat capacity at constant pressure: 373 ± 12 J/K/mol
[3]; 465.12 K, Liquid, Small sample (50 mg) DSC
  molar heat capacity at constant pressure: 373.5 ± 12 J/K/mol
[3]; 468.14 K, Liquid, Small sample (50 mg) DSC
  molar heat capacity at constant pressure: 374.1 ± 12 J/K/mol
[3]; 471.14 K, Liquid, Small sample (50 mg) DSC
  molar heat capacity at constant pressure: 374.6 ± 12 J/K/mol

Reference: the NIST ThermoML archive (doi:10.1016/j.tca.2014.10.002)
